Measured values: PubChem BioAssay (NCI)
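Method: 48-hour compound exposure of cells in 96-well plates, five concentrations, linear interpolation of endpoints. Abbreviation: GI50, concentration required for 50% inhibition of growth. Definition used: TGI = concentration required for complete inhibition of growth.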

Legend:
Assay in all cases: growth of human tumour cells (NCI), 48 h
KM20L2 colon = system: KM20L2 colon
DMS 273 small cell lung = system: DMS 273 small cell lung
OVCAR-8 ovarian = system: OVCAR-8 ovarian
SF-539 CNS = system: SF-539 CNS
NCI-H522 lung = system: NCI-H522 lung
SK-OV-3 ovarian = system: SK-OV-3 ovarian
SN12C renal = system: SN12C renal
HOP-18 NSCLC = system: HOP-18 NSCLC
BT-549 breast = system: BT-549 breast
NCI/ADR-RES ovarian = system: NCI/ADR-RES ovarian

Compound: Nc1ccc(/C=C/c2ccnc3ccccc23)cc1
- TGI (KM20L2 colon): 46.6 µM
- TGI (DMS 273 small cell lung): 48.9 µM
- TGI (OVCAR-8 ovarian): 88.2 µM
- TGI (SF-539 CNS): 47.9 µM
- TGI (NCI-H522 lung): 30.7 µM

Compound: CC(C)=CCC/C(=C/CC/C(C)=C/CCc1ccoc1)C(=O)O
- TGI (KM20L2 colon): > 100 µM
- TGI (SK-OV-3 ovarian): > 100 µM
- TGI (OVCAR-8 ovarian): > 100 µM
- TGI (SF-539 CNS): > 100 µM
- TGI (SN12C renal): > 100 µM
- TGI (NCI-H522 lung): > 100 µM

Compound: CC[O-].CC[O-].O=C1c2ccccc2C(=O)c2c(O)ccc([O-])c21.O=C1c2ccccc2C(=O)c2c(O)ccc([O-])c21.[Ti+4]
- GI50 (KM20L2 colon): > 100 µM
- TGI (KM20L2 colon): > 100 µM
- TGI (SK-OV-3 ovarian): > 100 µM
- TGI (DMS 273 small cell lung): > 100 µM
- TGI (OVCAR-8 ovarian): > 100 µM
- TGI (SF-539 CNS): > 100 µM
- TGI (SN12C renal): > 100 µM
- GI50 (HOP-18 NSCLC): 74.4 µM
- TGI (HOP-18 NSCLC): > 100 µM
- TGI (NCI-H522 lung): > 100 µM

Compound: COc1c2c(cc3nc4ccccc4nc13)CCC(C(C)(C)O)C2 (configuration not stated)
- TGI (KM20L2 colon): > 100 µM
- TGI (SK-OV-3 ovarian): > 100 µM
- TGI (DMS 273 small cell lung): > 100 µM
- TGI (OVCAR-8 ovarian): > 100 µM
- TGI (SF-539 CNS): > 100 µM
- TGI (SN12C renal): > 100 µM
- TGI (HOP-18 NSCLC): > 100 µM
- TGI (NCI-H522 lung): > 100 µM

Compound: NC1=NN(c2ccccc2)C(=O)C1C(=O)CCC(=O)Nc1cccc(C(F)(F)F)c1 (configuration not stated)
- TGI (KM20L2 colon): > 100 µM
- TGI (SK-OV-3 ovarian): > 100 µM
- TGI (DMS 273 small cell lung): > 100 µM
- TGI (OVCAR-8 ovarian): > 100 µM
- TGI (SF-539 CNS): > 100 µM
- TGI (SN12C renal): > 100 µM
- TGI (HOP-18 NSCLC): > 100 µM

Compound: Cn1cc(C(=O)c2ccccc2)ccc1=O
- TGI (KM20L2 colon): > 100 µM
- TGI (SK-OV-3 ovarian): > 100 µM
- TGI (DMS 273 small cell lung): > 100 µM
- TGI (OVCAR-8 ovarian): > 100 µM
- TGI (SF-539 CNS): > 100 µM
- TGI (SN12C renal): > 100 µM
- TGI (NCI-H522 lung): > 100 µM

Compound: O=C(O)CN(c1ccccc1)S(=O)(=O)c1ccccc1[N+](=O)[O-]
- TGI (KM20L2 colon): > 100 µM
- TGI (SK-OV-3 ovarian): > 100 µM
- TGI (DMS 273 small cell lung): > 100 µM
- TGI (OVCAR-8 ovarian): > 100 µM
- TGI (SF-539 CNS): > 100 µM
- TGI (SN12C renal): > 100 µM
- TGI (HOP-18 NSCLC): > 100 µM
- TGI (NCI-H522 lung): > 100 µM

Compound: Cc1noc(C)c1CCCOC1COc2ccccc2OCCOCCOc2ccccc2OC1
- TGI (KM20L2 colon): > 100 µM
- TGI (SK-OV-3 ovarian): > 100 µM
- TGI (DMS 273 small cell lung): > 100 µM
- TGI (OVCAR-8 ovarian): > 100 µM
- TGI (SF-539 CNS): > 100 µM
- TGI (SN12C renal): > 100 µM
- TGI (HOP-18 NSCLC): > 100 µM
- TGI (NCI-H522 lung): > 100 µM

Compound: CCCCCCCCCCCCCC1CCC(CC)N1 (configuration not stated)
- TGI (KM20L2 colon): 26.2 µM
- TGI (SK-OV-3 ovarian): 30.7 µM
- TGI (DMS 273 small cell lung): 29.1 µM
- TGI (OVCAR-8 ovarian): 39.1 µM
- TGI (SF-539 CNS): 32.1 µM
- TGI (SN12C renal): 23.4 µM
- TGI (HOP-18 NSCLC): 30.9 µM
- TGI (NCI-H522 lung): 32.6 µM

Compound: CC1=C(C)CC2(CCCCC2=O)S(=O)C1 (configuration not stated)
- TGI (KM20L2 colon): > 100 µM
- TGI (SK-OV-3 ovarian): > 100 µM
- TGI (DMS 273 small cell lung): > 100 µM
- TGI (OVCAR-8 ovarian): > 100 µM
- TGI (SF-539 CNS): > 100 µM
- TGI (SN12C renal): > 100 µM
- TGI (HOP-18 NSCLC): > 100 µM

Compound: Cc1cc(C)nc(NS(=O)(=O)c2ccc(Nc3c4ccccc4nc4c(C(=O)Nc5ccc(S(=O)(=O)Nc6cc(C)on6)cc5)cccc34)cc2)n1
- TGI (KM20L2 colon): 44.4 µM
- TGI (SK-OV-3 ovarian): 61.7 µM
- TGI (DMS 273 small cell lung): 55.8 µM
- TGI (OVCAR-8 ovarian): 39.3 µM
- TGI (SF-539 CNS): 34.7 µM
- TGI (SN12C renal): 66.5 µM
- TGI (HOP-18 NSCLC): 53.4 µM
- TGI (NCI-H522 lung): 29 µM

Compound: CCOC1=NC(=O)CC(c2ccccc2)S1 (configuration not stated)
- TGI (KM20L2 colon): > 100 µM
- TGI (DMS 273 small cell lung): > 100 µM
- TGI (OVCAR-8 ovarian): > 100 µM
- TGI (SF-539 CNS): > 100 µM
- TGI (SN12C renal): > 100 µM

Compound: COC(=O)c1cc(Br)c(Br)n1C
- TGI (KM20L2 colon): > 100 µM
- TGI (SK-OV-3 ovarian): > 100 µM
- TGI (DMS 273 small cell lung): > 100 µM
- TGI (OVCAR-8 ovarian): > 100 µM
- TGI (SF-539 CNS): > 100 µM
- TGI (SN12C renal): > 100 µM
- TGI (HOP-18 NSCLC): > 100 µM
- TGI (NCI-H522 lung): > 100 µM

Compound: CCOC(=O)Sc1ncnc2nc[nH]c12
- GI50 (SK-OV-3 ovarian): 0.484 µM
- TGI (SK-OV-3 ovarian): > 100 µM
- GI50 (BT-549 breast): 9.92 µM
- TGI (BT-549 breast): > 100 µM
- GI50 (OVCAR-8 ovarian): 3.08 µM
- TGI (OVCAR-8 ovarian): > 100 µM
- GI50 (SF-539 CNS): 2.35 µM
- TGI (SF-539 CNS): > 100 µM
- GI50 (SN12C renal): 7.94 µM
- TGI (SN12C renal): > 100 µM
- GI50 (NCI/ADR-RES ovarian): 3.47 µM
- TGI (NCI/ADR-RES ovarian): > 100 µM
- GI50 (NCI-H522 lung): 3.33 µM
- TGI (NCI-H522 lung): > 100 µM

Compound: N#Cc1nc(C2OC(COC(=O)c3ccccc3)C(OC(=O)c3ccccc3)C2OC(=O)c2ccccc2)oc1N (configuration not stated)
- TGI (KM20L2 colon): > 100 µM
- TGI (SK-OV-3 ovarian): > 100 µM
- TGI (DMS 273 small cell lung): > 100 µM
- TGI (OVCAR-8 ovarian): > 100 µM
- TGI (SF-539 CNS): > 100 µM
- TGI (SN12C renal): > 100 µM
- TGI (HOP-18 NSCLC): > 100 µM
- TGI (NCI-H522 lung): 65.2 µM

Compound: CN/N=C(/CCN1CCCC1)CC(c1ccccc1)c1c(O)c2ccccc2oc1=O (configuration not stated)
- TGI (KM20L2 colon): > 100 µM
- TGI (SK-OV-3 ovarian): > 100 µM
- TGI (BT-549 breast): > 100 µM
- TGI (DMS 273 small cell lung): > 100 µM
- TGI (OVCAR-8 ovarian): > 100 µM
- TGI (SF-539 CNS): > 100 µM
- TGI (SN12C renal): > 100 µM
- TGI (HOP-18 NSCLC): > 100 µM
- TGI (NCI/ADR-RES ovarian): > 100 µM
- TGI (NCI-H522 lung): > 100 µM

Compound: CCN(CC)c1sc(N(CC)CC)c2c1SSSSS2
- GI50 (SK-OV-3 ovarian): 3.13 µM
- TGI (SK-OV-3 ovarian): 6.98 µM
- GI50 (BT-549 breast): 2.06 µM
- TGI (BT-549 breast): 4.8 µM
- GI50 (OVCAR-8 ovarian): 2.18 µM
- TGI (OVCAR-8 ovarian): 4.7 µM
- GI50 (SF-539 CNS): 0.995 µM
- TGI (SF-539 CNS): 2.63 µM
- GI50 (SN12C renal): 0.315 µM
- TGI (SN12C renal): 0.866 µM
- GI50 (NCI/ADR-RES ovarian): 0.89 µM
- TGI (NCI/ADR-RES ovarian): 2.53 µM
- GI50 (NCI-H522 lung): 0.416 µM

Compound: COC(=O)Nc1nc2ccc(Oc3ccc(NC(=O)Nc4ccccc4)cc3)cc2[nH]1
- GI50 (SK-OV-3 ovarian): 0.0696 µM
- TGI (SK-OV-3 ovarian): 0.3 µM
- GI50 (BT-549 breast): 1.61 µM
- TGI (BT-549 breast): 11.8 µM
- GI50 (OVCAR-8 ovarian): 0.545 µM
- TGI (OVCAR-8 ovarian): 8.04 µM
- GI50 (SF-539 CNS): 0.0885 µM
- TGI (SF-539 CNS): 0.878 µM
- GI50 (SN12C renal): 0.452 µM
- TGI (SN12C renal): > 10.9 µM
- GI50 (NCI/ADR-RES ovarian): 0.391 µM
- TGI (NCI/ADR-RES ovarian): > 25 µM
- GI50 (NCI-H522 lung): 0.0686 µM
- TGI (NCI-H522 lung): 0.667 µM

Compound: CCN(CC)CCCC(C)Nc1c(C)cnc2cc(Cl)c(C)cc12 (configuration not stated)
- GI50 (SK-OV-3 ovarian): 23.2 µM
- TGI (SK-OV-3 ovarian): > 58 µM
- GI50 (BT-549 breast): 12.9 µM
- TGI (BT-549 breast): 28.7 µM
- GI50 (OVCAR-8 ovarian): 11.4 µM
- TGI (OVCAR-8 ovarian): 43.5 µM
- GI50 (SF-539 CNS): 6.83 µM
- TGI (SF-539 CNS): 21.1 µM
- GI50 (SN12C renal): 11.2 µM
- TGI (SN12C renal): 43.9 µM
- GI50 (NCI/ADR-RES ovarian): 3.43 µM
- TGI (NCI/ADR-RES ovarian): 10.7 µM
- GI50 (NCI-H522 lung): 23 µM
- TGI (NCI-H522 lung): 53.1 µM

Compound: COc1cc(C2=NN(C(C)=O)C(c3ccc(OC(C)=O)cc3OC(C)=O)O2)c(OC(C)=O)c2ccccc12 (configuration not stated)
- GI50 (SK-OV-3 ovarian): 0.649 µM
- TGI (SK-OV-3 ovarian): 19.7 µM
- GI50 (BT-549 breast): 1.87 µM
- TGI (BT-549 breast): 47.6 µM
- GI50 (OVCAR-8 ovarian): 0.426 µM
- TGI (OVCAR-8 ovarian): 33.7 µM
- GI50 (SF-539 CNS): 0.697 µM
- TGI (SF-539 CNS): 3.48 µM
- GI50 (SN12C renal): 0.864 µM
- TGI (SN12C renal): > 43.8 µM
- GI50 (NCI/ADR-RES ovarian): 0.542 µM
- TGI (NCI/ADR-RES ovarian): > 51.8 µM
- GI50 (NCI-H522 lung): 1.19 µM
- TGI (NCI-H522 lung): 11 µM
